Measured values: patent publication US9469650B2, “Melampomagnolide B derivatives” (BOARD OF TRUSTEES OF THE UNIVERSITY OF ARKANSAS, priority 2013, dated 2016)

Tests used:
SW-620 = experiment: panel of 60 human tumor cell lines, growth inhibition (Colon Cancer); conditions: SW-620
IGROV1 = experiment: panel of 60 human tumor cell lines, growth inhibition (Ovarian Cancer); conditions: IGROVI
LOX IMVI = experiment: panel of 60 human tumor cell lines, growth inhibition (Melanoma)
TK-10 = experiment: panel of 60 human tumor cell lines, growth inhibition (Renal Cancer); conditions: TK-10
M14 = experiment: panel of 60 human tumor cell lines, growth inhibition (Melanoma); conditions: M14
SK-MEL-2 = experiment: as above; conditions: SK-MEL-2
A549/ATCC = experiment: panel of 60 human tumor cell lines, growth inhibition (Non-Small Cell Lung Cancer); conditions: A549/ATCC
CCRF-CEM = experiment: panel of 60 human tumor cell lines, growth inhibition (Leukemia)
MDA-MB-231/ATCC = experiment: panel of 60 human tumor cell lines, growth inhibition (Breast Cancer); conditions: MDA-MB-231/ATCC

`C=C1C(=O)O[C@H]2[C@H]1CC/C(COC(=O)CCC(=O)N1CCC(C)CC1)=C\CC[C@@]1(C)O[C@@H]21` [JVM 2-70] was tested, and the “Percent Growth” value (SW-620; Log10 Concentration −4.0) was −80%, the “Percent Growth” value (SW-620; Log10 Concentration −5.0) was 1% and the “Percent Growth” value (SW-620; Log10 Concentration −6.0) was 79%. The “Percent Growth” value (SW-620; Log10 Concentration −7.0) was 97%, the “Percent Growth” value (SW-620; Log10 Concentration −8.0) was 99% and the GI50 (SW-620; NCI five dose) was 2.33 µM. The TGI (SW-620; NCI five dose) was 1.02E−5, the “Percent Growth” value (IGROV1; Log10 Concentration −4.0) was −52% and the “Percent Growth” value (IGROV1; Log10 Concentration −5.0) was 19%. For the same compound, the “Percent Growth” value (IGROV1; Log10 Concentration −6.0) was 104%, the “Percent Growth” value (IGROV1; Log10 Concentration −7.0) was 118% and the “Percent Growth” value (IGROV1; Log10 Concentration −8.0) was 109%. The GI50 (IGROV1; NCI five dose) was 4.32 µM, the TGI (IGROV1; NCI five dose) was 1.85E−5 and the “Percent Growth” value (LOX IMVI; Log10 Concentration −4.0) was −84%. The “Percent Growth” value (LOX IMVI; Log10 Concentration −5.0) was 4%, the “Percent Growth” value (LOX IMVI; Log10 Concentration −6.0) was 91% and the “Percent Growth” value (LOX IMVI; Log10 Concentration −7.0) was 96%. For the same compound, the “Percent Growth” value (LOX IMVI; Log10 Concentration −8.0) was 96%, the GI50 (LOX IMVI; NCI five dose) was 2.95 µM and the TGI (LOX IMVI; NCI five dose) was 1.10E−5. The “Percent Growth” value (TK-10; Log10 Concentration −4.0) was −97%, the “Percent Growth” value (TK-10; Log10 Concentration −5.0) was 9% and the “Percent Growth” value (TK-10; Log10 Concentration −6.0) was 109%. For the same compound, the “Percent Growth” value (TK-10; Log10 Concentration −7.0) was 106%, the “Percent Growth” value (TK-10; Log10 Concentration −8.0) was 97% and the GI50 (TK-10; NCI five dose) was 3.9 µM. For the same compound, the TGI (TK-10; NCI five dose) was 1.23E−5, the “Percent Growth” value (M14; Log10 Concentration −4.0) was −81% and the “Percent Growth” value (M14; Log10 Concentration −5.0) was 21%. The “Percent Growth” value (M14; Log10 Concentration −6.0) was 84%, the “Percent Growth” value (M14; Log10 Concentration −7.0) was 94% and the “Percent Growth” value (M14; Log10 Concentration −8.0) was 91%. The GI50 (M14; NCI five dose) was 3.44 µM, the TGI (M14; NCI five dose) was 1.60E−5 and the “Percent Growth” value (SK-MEL-2; Log10 Concentration −4.0) was −82%. For the same compound, the “Percent Growth” value (SK-MEL-2; Log10 Concentration −5.0) was 68%, the “Percent Growth” value (SK-MEL-2; Log10 Concentration −6.0) was 108% and the “Percent Growth” value (SK-MEL-2; Log10 Concentration −7.0) was 112%. The “Percent Growth” value (SK-MEL-2; Log10 Concentration −8.0) was 106%, the GI50 (SK-MEL-2; NCI five dose) was 13.1 µM and the TGI (SK-MEL-2; NCI five dose) was 2.83E−5. For the same compound, the “Percent Growth” value (A549/ATCC; Log10 Concentration −4.0) was −68%, the “Percent Growth” value (A549/ATCC; Log10 Concentration −5.0) was 79% and the “Percent Growth” value (A549/ATCC; Log10 Concentration −6.0) was 93%. For the same compound, the “Percent Growth” value (A549/ATCC; Log10 Concentration −7.0) was 96%, the “Percent Growth” value (A549/ATCC; Log10 Concentration −8.0) was 97% and the GI50 (A549/ATCC; NCI five dose) was 15.8 µM. For the same compound, the TGI (A549/ATCC; NCI five dose) was 3.47E−5, the “Percent Growth” value (CCRF-CEM; Log10 Concentration −4.0) was −56% and the “Percent Growth” value (CCRF-CEM; Log10 Concentration −5.0) was −32%. The “Percent Growth” value (CCRF-CEM; Log10 Concentration −6.0) was 64%, the “Percent Growth” value (CCRF-CEM; Log10 Concentration −7.0) was 92% and the “Percent Growth” value (CCRF-CEM; Log10 Concentration −8.0) was 98%. The GI50 (CCRF-CEM; NCI five dose) was 1.4 µM, the TGI (CCRF-CEM; NCI five dose) was 4.68E−6 and the “Percent Growth” value (MDA-MB-231/ATCC; Log10 Concentration −4.0) was −85%. For the same compound, the “Percent Growth” value (MDA-MB-231/ATCC; Log10 Concentration −5.0) was 41%, the “Percent Growth” value (MDA-MB-231/ATCC; Log10 Concentration −6.0) was 102% and the “Percent Growth” value (MDA-MB-231/ATCC; Log10 Concentration −7.0) was 97%. The “Percent Growth” value (MDA-MB-231/ATCC; Log10 Concentration −8.0) was 105%, the GI50 (MDA-MB-231/ATCC; NCI five dose) was 7.13 µM and the TGI (MDA-MB-231/ATCC; NCI five dose) was 2.12E−5.
